Here are results for 15 compounds from patent US20220257774A1, “AROMATIC AMINE AR AHD BET TARGETING PROTEIN DEGRADATION CHIMERA COMPOUND AND USE” (HINOVA PHARMACEUTICALS INC., priority 2019, published 2022).

pIC50: −log10 of the molar value. Where two headings read alike, the source gives them in different places. Where only a bound is given, the exact number is not on record here.

The test system of the experiment is LNCaP/AR cells. Nature of the experiment: Inhibition of the proliferation of LNCap/AR cells (CCK-8). It is filed as cell-based. The conditions noted are these: read-out: LNCap/AR IC50. From the text: 1. Biological Assay of the Inhibition on the Proliferation of LNCap/AR Cells
(1) Experimental materials and instruments: LNCaP/AR cell line and 22RV1 cell line (provided by Sichuan Kangcheng Biotechnology Co., Ltd.) Fetal bovine serum FBS (Gibco, Cat. No. 10099-141) 0.01M PBS (Biosharp, Cat. No. 162262) RIPM1640 medium (Hyclone, Cat. No. 308090.01) Penicillin-Streptomycin (Hyclone, Cat. No. SV30010) Cell counting kit-8 (Signalway Antibody, Cat. No. CP002) DMSO (Sigma, Cat. No. D5879) Centrifuge Tube, 15 ml (Excell Bio, Cat. No. CS015-0001) Cell Culture Dish, (Excell Bio, Cat. No. CS016-0128) 96-well cell culture plate (Corning, Cat. No. 3599) Microplate reader (Thermo Multiskan MK3 type)
(2) Experimental Methods:
a. Preparation of Buffer Cell culture medium: RIPM1640 medium, 10% FBS, 1% Pen Strep: PBS buffer: PBS powder was dissolved in 2 L of ultrapure water and sterilized. b. Experimental Procedures 1) LNCaP/AR cells were subcultured in cell culture media, and then the cells in good growth condition were seeded in a 96-well plate at 80 μL/well (1000 cells/well), and cultured overnight in a 37° C., 5% CO2 cell incubator. 2) The drug was prepared into a 10 mM stock solution with dimethyl sulfoxide (DMSO). Prior to use, the stock solution was diluted in a ratio of […] with DMSO, and then diluted at a 3-fold gradient to obtain 9 serial concentrations. Then, each concentration of compound was further diluted in a ratio of 1:200 with the culture medium (to ensure that the DMSO concentration in the culture system was 0.1%), and two wells were set for each concentration. 20 μL of the diluted compound solution was added to the well of the cell culture (with a final concentration of 10 μM, 3.3 μM, 1.1 μM . . . ), and then the plate was gently tapped to thoroughly mix. In addition, the experiment included 3 negative control wells only containing cells and 3 blank control wells only containing culture medium (6 wells were each added with DMSO diluted in a ratio of 1:200 with 20 μL of culture medium). c. Result Detection: 1) After culturing for 6 days, 10 μL of CCK-8 was added to each well, and the plate was further incubated for 1 h in a 37° C., 5% CO2 cell incubator. 2) The absorbance (OD value) was measured at 450 nm with a multifunctional microplate reader. 3) The data was analyzed by the Dose-response-inhibition equation in the software GraphPad Prism5, and the IC50 value was obtained. 2. Biological assay of the inhibition on the proliferation of other drug-resistant prostate cancer cells

Setting [1] is: 144 h, LNCaP/AR cells, 6 days culture, CCK-8.
The mark [2] stands for this setting: LNCaP/AR cells, 6 days culture, CCK-8.

Consider `CC(=O)O[C@@H]1C[C@@H](C(=O)N[C@@H](C)c2ccc(-c3scnc3C)cc2)N(C(=O)[C@@H](NC(=O)COCCCCCN(c2ccc(-n3ccnc3)c(Br)c2)c2cc(-c3c(C)noc3C)cnc2C)C(C)(C)C)C1` [Compound 48, (3R,5S)-1-((S)-2-(2-((5-((3-bromo-4-(1H-imidazol-1-yl)phenyl)(5-(3,5-dimethylisoxazol-4-yl)-2-methylpyridin-3-yl)amino)pentyl)oxy)acetamido)-3,3-dimethylbutanol)-5-((S)-1-(4-methylthiazol-5-yl)phenyl)ethyl)carbamoyl)pyrrolidine-3-yl acetate], for which the pIC50 under setting [1] was 5.70 to 6.30. Regarding `Cc1ncc(-c2c(C)noc2C)cc1N(CCCCCOCC(=O)N[C@H](C(=O)N1C[C@H](O)C[C@H]1C(=O)N[C@@H](C)c1ccc(-c2scnc2C)cc1)C(C)(C)C)c1ccc(-n2ccnc2)c(Br)c1` [Compound 49, (2S,4R)-1-((S)-2-(2-((5-((3-bromo-4-(1H-imidazol-1-yl)phenyl)(5-(3,5-dimethylisoxazol-4-yl)-2-methylpyridin-3-yl)amino)pentyl)oxy)acetamido)-3,3-dimethylbutyryl)-4-hydroxy-N—((S)-1-(4-(4-methylthiazol-5-yl)phenyl)ethyl)pyrrolidine-2-formamide], the pIC50 under setting [1] was 5.70 to 6.30. The same measure, in the same setting: under `CC(=O)O[C@@H]1C[C@@H](C(=O)N[C@@H](C)c2ccc(-c3scnc3C)cc2)N(C(=O)[C@@H](NC(=O)COCCN2CCC(CN(c3ccc(-n4ccnc4)c(Br)c3)c3cc(-c4c(C)noc4C)ccc3C)CC2)C(C)(C)C)C1` [Compound 50, (3R,5S)-1-((S)-2-(2-(4-((3-bromo-4-(1H-imidazol-1-yl)phenyl) (5-(3,5-dimethylisoxazol-4-yl)-2-methylphenyl)amino)methyl)piperidin-1-yl)ethoxy)acetamido)-3,3-dimethylbutyryl)-5-((S)-1-(4-methylthiazol-5-yl)phenyl)ethyl)carbamoyl)pyrrolidine-3-yl acetate] stands 5.70 to 6.30; under `CC(=O)O[C@@H]1C[C@@H](C(=O)N[C@@H](C)c2ccc(-c3scnc3C)cc2)N(C(=O)[C@@H](NC(=O)COCCN2CC(CN(c3ccc(-n4ccnc4)c(Br)c3)c3cc(-c4c(C)noc4C)ccc3C)C2)C(C)(C)C)C1` [Compound 51, (3R,5S)-1-((S)-2-(2-(3-((3-bromo-4-(1H-imidazol-1-yl)phenyl) (5-(3,5-dimethylisoxazol-4-yl)-2-methylphenyl)amino)methyl)azetidine-1-yl)ethoxy)acetamido)-3,3-dimethylbutanol)-5-((S)-(4-methylthiazol-5-yl)phenyl)ethyl)carbamoyl)pyrrolidine-3-yl acetate], under 5.70. On to `CC(=O)O[C@@H]1C[C@@H](C(=O)N[C@@H](C)c2ccc(-c3scnc3C)cc2)N(C(=O)[C@@H](NC(=O)COCCCCCN(c2ccc(-n3cnc(C)c3)c(Br)c2)c2cc(-c3c(C)noc3C)ccc2C)C(C)(C)C)C1` [Compound 52, (3R,5S)-1-((S)-2-(2-((5-((3-bromo-4-(4-methy-1H-imidazol-1-yl)phenyl)(5-(3,5-dimethylisoxazol-4-yl)-2-methylphenyl)amino)pentyl)oxy)acetamido)-3,3-dimethylbutyryl)-5-((S)-1-(4-methylthiazol-5-yl)phenyl)ethyl)carbamoyl)pyrrolidine-3-yl acetate], for which, under setting [2], the pIC50 was 6.30 to 7.00. Consider `Cc1cn(-c2ccc(N(CCCCCOCC(=O)N[C@H](C(=O)N3C[C@H](O)C[C@H]3C(=O)N[C@@H](C)c3ccc(-c4scnc4C)cc3)C(C)(C)C)c3cc(-c4c(C)noc4C)ccc3C)cc2Br)cn1` [Compound 53], for which the pIC50 under setting [1] is over 7.00. Regarding `CC(=O)O[C@@H]1C[C@@H](C(=O)N[C@@H](C)c2ccc(-c3scnc3C)cc2)N(C(=O)[C@@H](NC(=O)COCCOCCN(c2ccc(-n3ccnc3)c(Br)c2)c2cc(-c3c(C)noc3C)ccc2C)C(C)(C)C)C1` [Compound 54], under setting [1], the pIC50 is under 5.70. Turning to `Cc1ccc(-c2c(C)noc2C)cc1N(CCOCCOCC(=O)N[C@H](C(=O)N1C[C@H](O)C[C@H]1C(=O)N[C@@H](C)c1ccc(-c2scnc2C)cc1)C(C)(C)C)c1ccc(-n2ccnc2)c(Br)c1` [Compound 55], under setting [1], the pIC50 is under 5.70. For `COc1ccc(N(CCCCCOCC(=O)N[C@H](C(=O)N2C[C@H](OC(C)=O)C[C@H]2C(=O)N[C@@H](C)c2ccc(-c3scnc3C)cc2)C(C)(C)C)c2cc(-c3c(C)noc3C)ccc2C)cc1` [Compound 56, (3R,5S)-1-((S)-2-(2-((5-((5-(3,5-dimethylisoxazol-4-yl)-2-methylphenyl)(4-methoxyphenyl)amino)pentyl)oxy)acetamido)-3,3-dimethylbutyryl)-5-((S)-1-(4-(4-methylthiazol-5-yl)phenyl)ethyl)carbamoyl)pyrrolidine-3-yl acetate], under setting [2], the pIC50 was 6.30 to 7.00.

Take `Cc1ccc(-c2c(C)noc2C)cc1N(CCCCCOCC(=O)N[C@H](C(=O)N1C[C@H](O)C[C@H]1C(=O)N[C@@H](C)c1ccc(-c2scnc2C)cc1)C(C)(C)C)c1ccc(C#N)c(Cl)c1` [Compound 58]: the pIC50 (LNCaP/AR, 144 h) was 6.30 to 7.00. The same measure, in the same setting: in the case of `Cc1ccc(-c2c(C)noc2C)cc1N(CCCCCN1C(=O)CCC(N2Cc3cc(N)ccc3C2=O)C1=O)c1ccc(C#N)c(Cl)c1` (stereo not drawn) [Compound 59, 4-((5-(3-(5-amino-1-oxoisoindolin-2-yl)-2,6-dioxopiperidin-1-yl)pentyl)(5-(3,5-dimethylisoxazol-4-yl)-2-methylphenyl)amino)-2-chlorobenzonitrile] it was 5.70 to 6.30. For the compound `CCN(c1ccc(C#N)c(Cl)c1)c1cc(-c2c(C)nn(CCCCCOCC(=O)N[C@H](C(=O)N3C[C@H](OC(C)=O)C[C@H]3C(=O)N[C@@H](C)c3ccc(-c4scnc4C)cc3)C(C)(C)C)c2C)ccc1C` [Compound 81, (3R,5S)-1-((S)-2-(2-((5-(4-(3-((3-chloro-4-cyanophenyl)(ethyl)amino)-4-methylphenyl)-3,5-dimethyl-1H-pyrazol-1-yl)pentyl)oxy)acetamido)-3,3-dimethylbutyryl)-5-((S)-1-(4-methylthiazol-5-yl)phenyl)ethyl)carbamoyl)pyrrolidine-3-yl acetate], the pIC50 (LNCaP/AR, 144 h) was 5.70 to 6.30. As to `CCn1nc(C)c(-c2ccc(C)c(N(CCCCCOCC(=O)N[C@H](C(=O)N3C[C@H](OC(C)=O)C[C@H]3C(=O)N[C@@H](C)c3ccc(-c4scnc4C)cc3)C(C)(C)C)c3ccc(C#N)c(Cl)c3)c2)c1C` [Compound 82, (3R,5S)-1-((S)-2-(2-((5-((3-chloro-4-cyanophenyl)(5-(1-ethyl-3,5-dimethyl-1H-pyrazol-4-yl)-2-methylphenyl)amino)pentyl)oxy)acetamido)-3,3-dimethylbutyryl)-5-((S)-1-(4-methylthiazol-5-yl)phenyl)ethyl)carbamoyl)pyrrolidine-3-yl acetate], the pIC50 under setting [2] is 6.30 to 7.00. The same measure, in the same setting: under `Cc1ccc(-c2c(C)noc2C)cc1N(CCCCCOCC(=O)N[C@H](C(=O)N1C[C@H](O)C[C@H]1C(=O)N[C@@H](C)c1ccc(-c2scnc2C)cc1)C(C)(C)C)c1ccc(-n2ccnc2)cc1` [Compound 83, (2S,4R)-1-((S)-2-(2-((5-((4-(1H-imidazol-1-yl)phenyl)(5-(3,5-dimethylisoxazol-4-yl)-2-methylphenyl)amino)pentyl)oxy)acetylamino)-3,3-dimethylbutyryl)-4-hydroxy-N—((S)-1-(4-(4-methylthiazol-5-yl)phenyl)ethyl)-pyrrolidinyl-2-formamide] stands over 7.00. With `CC(=O)O[C@@H]1C[C@@H](C(=O)N[C@@H](C)c2ccc(-c3scnc3C)cc2)N(C(=O)[C@@H](NC(=O)COCCCCCN(c2ccc(-n3ccnc3)cc2)c2cc(-c3c(C)noc3C)ccc2C)C(C)(C)C)C1` [Compound 84, (3R,5S)-1-((S)-2-(2-((S-((4-(1H-imidazol-1-yl)phenyl)(5-(3,5-dimethylisoxazol-4-yl)-2-methylphenyl)amino)pentyl)oxy)acetylamino)-3,3-dimethylbutyryl)-5-(((S)-1-(4-(4-methylthiazol-5-yl)phenyl)ethyl)aminoformyl)pyrrolidinyl-3-yl acetate], the pIC50 under setting [1] was 5.70 to 6.30.
